From patent publication US20050203086A1, “Methods of treatment using an EP2 selective receptor agonist” (Pfizer Inc., priority 2004, published 2005) come the findings set out here.

In this test the target is T1, prostaglandin E2 type 2 (EP2) receptors (Homo sapiens, UniProt P43116).
T1 construct: These full length receptors are used to prepare 293S cells expressing the EP1, EP2, EP3 and EP4 receptors; expressed in transfected cells; membranes
T1 sequence (P43116 whole entry): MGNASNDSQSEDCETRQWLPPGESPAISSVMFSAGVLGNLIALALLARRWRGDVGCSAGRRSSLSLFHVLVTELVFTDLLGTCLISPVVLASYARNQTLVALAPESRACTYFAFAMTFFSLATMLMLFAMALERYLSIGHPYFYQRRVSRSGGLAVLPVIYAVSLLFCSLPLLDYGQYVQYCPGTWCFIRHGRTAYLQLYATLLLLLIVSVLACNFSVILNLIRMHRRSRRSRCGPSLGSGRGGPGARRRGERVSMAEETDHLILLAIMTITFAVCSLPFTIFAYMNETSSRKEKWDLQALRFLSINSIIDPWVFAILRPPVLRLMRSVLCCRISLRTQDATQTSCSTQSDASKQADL
Kind of test: Assay for Binding to Prostaglandin E2 Receptors (3H-prostaglandin E2 displacement, membranes of transfected 293S cells). The note with it: concentration displacing 50% of specifically bound 3H-prostaglandin E2, 1 hour at 25° C. As to the method: Membrane Preparation: All operations are performed at […]. Transfected cells expressing prostaglandin E2 type 1 receptors (EP1), type 2 (EP2), type 3 (EP3) or type 4 (EP4) receptors are harvested and suspended to 2 million cells per ml in Buffer A [50 mM Tris-HCl (pH 7.4), 10 mM MgCl2, 1 mM EDTA, 1 mM Pefabloc peptide, (Boehringer Mannheim Corp., Indianapolis, Ind.), 10 uM Phosporamidon peptide, (Sigma, St. Louis, Mo.), 1 uM pepstatin A peptide, (Sigma, St. Louis, Mo.), 10 uM elastatinal peptide, (Sigma, St. Louis, Mo.), 100 uM antipain peptide, (Sigma, St. Louis, Mo.)]. The cells are lysed by sonification with a Branson Sonifier (Model #250, Branson Ultrasonics Corporation, Danbury, Conn.) in 2 fifteen second bursts. Unlysed cells and debris are removed by centrifugation, at 100×g for 10 min. Membranes are then harvested by centrifugation at 45,000×g for 30 minutes. […] Resuspended membranes are then stored frozen at −80° C. until use.
Binding Assay: Frozen membranes prepared as above are thawed and diluted to 1 mg protein per ml in Buffer A above. […] The membranes with bound ^3H-prostaglandin E2 are trapped by the filter, while the buffer and unbound ^3H-prostaglandin E2 pass through the filter into waste. Each sample is then washed 3 times with 3 ml of [50 mM Tris-HCl (pH 7.4), 10 mM MgCl2, 1 mM EDTA]. The filters are then dried by heating in a microwave oven.
Typically, PCR (polymerase chain reaction) primers corresponding to the 5′ and 3′ ends of the published full length receptor are made according to the well known methods disclosed above and are used in an RT-PCR reaction using the total RNA from human kidney (for EP1), human lung (for EP2), human lung (for EP3) or human lymphocytes (for EP4) as a source. PCR products are cloned by the TA overhang method into pCR2.1 (Invitrogen, Carlsbad, Calif.) and identity of the cloned receptor is confirmed by DNA sequencing.
Stable cell lines expressing the receptor are established following selection of transfected cells with G418.
In the case of `CCCCc1ccc(CN(Cc2cccc(CC(=O)O)c2)S(=O)(=O)c2csc(-c3ccccn3)c2)cc1` [Example 1n, (3-(((4-Butyl-benzyl)-(5-pyridin-2-yl-thiophene-3-sulfonyl)-amino)-methyl)-phenyl)-acetic acid], the concentration for half-maximal inhibition (IC50) was found to be 140 nM.

Turning to `CCCCc1ccc(CN(Cc2cccc(CC(=O)O)c2)S(=O)(=O)c2ccc(C)cc2)cc1` [Example 1o, (3-(((4-Butyl-benzyl)-(toluene-4-sulfonyl)-amino)-methyl)-phenyl)-acetic acid], the IC50 was determined as 550 nM. As for `O=C(O)Cc1cccc(CN(Cc2ccc3c(c2)OCCO3)S(=O)(=O)c2cccnc2)c1` [Example 1p, (3-(((2,3-Dihydro-benzo[1.4]dioxin-6-ylmethyl)-(pyridine-3-sulfonyl)-amino)-methyl)-phenyl)-acetic acid], the half-inhibitory concentration (IC50) was determined as 44 nM. As to `O=C(O)Cc1cccc(CN(Cc2cc3ccccc3o2)S(=O)(=O)c2cccnc2)c1` [Example 1q, (3-((Benzofuran-2-ylmethyl-(pyridine-3-sulfonyl)-amino)-methyl)-phenyl)-acetic acid], the concentration for half-maximal inhibition (IC50) amounted to 39 nM. In turn, `CCCCc1ccc(CN(Cc2cccc(CC(=O)O)c2)S(=O)(=O)c2cn(C)cn2)cc1` [Example 1r, (3-(((4-Butyl-benzyl)-(1-methyl-1H-imidazole-4-sulfonyl)-amino)-methyl)-Phenyl)-acetic acid] returned an IC50 of 308 nM.

`O=C(O)Cc1cccc(CN(Cc2ccc(-n3ccnc3)cc2)S(=O)(=O)c2cccnc2)c1` [Example 1s, (3-(((4-Imidazol-1-yl-benzyl)-(pyridine-3-sulfonyl)-amino)-methyl)-phenyl)-acetic acid] had an IC50 of 165 nM. Take `O=C(O)Cc1cccc(CN(Cc2ccc(-c3ncccn3)cc2)S(=O)(=O)c2cccnc2)c1` [Example 1t, (3-(((Pyridine-3-sulfonyl)-(4-pyrimidin-2-yl-benzyl)-amino)-methyl)-phenyl)-acetic acid]: the IC50 was 8 nM. As to `O=C(O)Cc1cccc(CN(Cc2ccc(-c3nccs3)cc2)S(=O)(=O)c2cccnc2)c1` [Example 1u, (3-(((Pyridine-3-sulfonyl)-(4-thiazol-2-yl-benzyl)-amino)-methyl)-phenyl)-acetic acid], the IC50 worked out at 7 nM.

As to `Cn1cnc(S(=O)(=O)N(Cc2ccc(-c3nccs3)cc2)Cc2cccc(CC(=O)O)c2)c1` [Example 1v, (3-(((1-Methyl-1H-imidazole-4-sulfonyl)-(4-thiazol-2-yl-benzyl)-amino)-methyl)-phenyl)-acetic acid], the half-maximal inhibitory concentration (IC50) was 9 nM. `CN(C)c1ccc(CN(Cc2cccc(CC(=O)O)c2)S(=O)(=O)c2cccnc2)cc1` [Example 1w, (3-(((4-Dimethylamino-benzyl)-(pyridine-3-sulfonyl)-amino]-methyl)-phenyl)-acetic acid]: the IC50 was determined as 24 nM. The value for `O=C(O)COc1cccc(CN(Cc2ccc(C3CCCCC3)cc2)S(=O)(=O)c2cccnc2)c1` [Example 1x, (3-(((4-Cyclohexyl-benzyl)-(pyridine-3-sulfonyl)-amino)-methyl)-phenoxy)-acetic acid] was 160 nM; that for `O=C(O)COc1cccc(CN(CCOc2cc(Cl)cc(Cl)c2)S(=O)(=O)c2cccnc2)c1` [Example 1y, (3-(((2-(3.5-Dichloro-phenoxy)-ethyl)-(pyridine-3-sulfonyl)-amino)-methyl)-phenoxy)-acetic acid] was 13 nM; that for `CN(C)c1ccc(CN(Cc2cccc(OCC(=O)O)c2)S(=O)(=O)c2cccnc2)cc1` [Example 1z, (3-(((4-Dimethylamino-benzyl)-(pyridine-3-sulfonyl)-amino)-methyl)-phenoxy)-acetic acid] was 19 nM.

`O=C(O)Cc1cccc(CN(CCOc2cccc(Cl)c2)S(=O)(=O)c2cccnc2)c1` [Example 2, (3-(((2-(3-Chloro-phenoxy)-ethyl)-(Pyridine-3-sulfonyl)-amino]-methyl)-phenyl)-acetic acid] had an IC50 of 45 nM. Molecule `O=C(O)Cc1cccc(CN(C/C=C/c2cc(Cl)cc(Cl)c2)S(=O)(=O)c2cccnc2)c1` [Example 2a, Trans-(3-(((3-(3,5-Dichloro-phenyl)-allyl)-(pyridine-3-sulfonyl)-amino)-methyl)-phenyl)-acetic acid] registered an IC50 of 37 nM. `O=C(O)Cc1cccc(CN(CCOc2cc(Cl)cc(Cl)c2)S(=O)(=O)c2cccnc2)c1` [Example 2b, (3-(((2-(3.5-Dichloro-phenoxy)-ethyl)-(pyridine-3-sulfonyl)-amino)-methyl)-phenyl)-acetic acid] registered a half-maximal inhibitory concentration (IC50) of 385 nM.

For `O=C(O)c1ccc(CCCN(CCSc2cccc(Cl)c2)S(=O)(=O)c2cccnc2)s1` [Example 3a, 5-(3-((2-(3-Chloro-phenylsulfanyl)-ethyl)-(pyridine-3-sulfonyl)-amino)-propyl) thiophene-2-carboxylic acid], the half-inhibitory concentration (IC50) worked out at 440 nM. In the case of `O=C(O)COc1cccc(CN(Cc2ccc(-c3nccs3)cc2)S(=O)(=O)c2cccnc2)c1` [Example 3b, (3-(((Pyridine-3-sulfonyl)-(4-thiazol-2-yl-benzyl)-amino)-methyl)-phenoxy)-acetic acid.2TFA], the IC50 turned out to be 7.83 nM. `O=C(O)c1ccc(CCCN(CCCc2cccc(Cl)c2)S(=O)(=O)c2cccnc2)s1` [Example 4, 5-(3-((3-(3-Chloro-phenyl)-propyl)-(pyridine-3-sulfonyl)-amino)-propyl)-thiophene-2-carboxylic acid] returned an IC50 of 225 nM.

`COc1ccc(S(=O)(=O)N(CCCc2cccc(Cl)c2)CCCc2ccc(C(=O)O)s2)cc1` [Example 4a, 5-(3-((3-(3-Chloro-phenyl)-propyl)-(4-methoxy-benzenesulfonyl)-amino)-propyl)-thiophene-2-carboxylic acid] gave an IC50 of 795 nM. `O=C(O)c1ccc(CCCN(CCCc2cccc(Cl)c2)S(=O)(=O)c2cccc3nsnc23)s1` [Example 4b, 5-(3-((Benzo[1,2.5]thiadiazole-4-sulfonyl)-(3-(3-chloro-phenyl)-propyl)-amino)-propyl)-thiophene-2-carboxylic acid]: the IC50 stood at 440 nM. With `O=C(O)c1ccc(CCCN(CCCc2cccc(Cl)c2)S(=O)(=O)Cc2ccccc2)s1` [Example 4d, 5-(3-((3-(3-Chloro-phenyl)-propyl)-phenylmethanesulfonyl-amino)-propyl)-thiophene-2-carboxylic acid], the IC50 was found to be 175 nM. The value for `O=C(O)c1ccc(CCCN(CCCc2cccc(Cl)c2)S(=O)(=O)c2cccnc2)o1` [Example 4e, 5-(3-((3-(3-Chloro-phenyl)-propyl)-(pyridine-3-sulfonyl)-amino)-propyl)-furan-2-carboxylic acid] was 410 nM. Molecule `O=C(O)c1ccc(CCCN(CCCc2cccc(Cl)c2)S(=O)(=O)c2ccc3ccccc3c2)s1` [Example 4f, 5-(3-((3-(3-Chloro-phenyl)-propyl)-(naphthalene-2-sulfonyl)-amino)-propyl)-thiophene-2-carboxylic acid] came in with a concentration for half-maximal inhibition (IC50) of 705 nM.

Molecule `O=C(O)c1ccc(CCCN(CCCc2cccc(Cl)c2)S(=O)(=O)c2cccc3ccccc23)s1` [Example 4g, 5-(3-((3-(3-Chloro-phenyl)-propyl)-(naphthalene-1-sulfonyl)-amino)-propyl)-thiophene-2-carboxylic acid] yielded an IC50 of 720 nM. Turning to `CC(=O)Nc1nc(C)c(S(=O)(=O)N(CCCc2cccc(Cl)c2)CCCc2ccc(C(=O)O)s2)s1` [Example 4h, 5-(3-((2-Acetylamino-4-methyl-thiazole-5-sulfonyl)-(3-(3-chloro-phenyl)-propyl)-amino)-propyl)-thiophene-2-carboxylic acid], the concentration for half-maximal inhibition (IC50) worked out at 210 nM. Molecule `O=C(O)c1ccc(CCCN(CCCc2cccc(Cl)c2)C(=O)c2cccnc2)s1` [Example 5, 5-(3-((3-(3-Chloro-phenyl)-propyl)-(pyridine-3-carbonyl)-amino)-propyl)-thiophene-2-carboxylic acid] had an IC50 of 980 nM. Turning to `O=C(O)c1ccc(CCCN(CCCc2cccc(Cl)c2)C(=O)Cc2ccccn2)s1` [Example 5a, 5-(3-((3-(3-Chloro-phenyl)-propyl)-(pyridin-2-yl-acetyl)-amino)-propyl)-thiophene-2-carboxylic acid], the concentration for half-maximal inhibition (IC50) was determined as 355 nM. Under `O=C(O)c1ccc(CCCN(CCCc2cccc(Cl)c2)C(=O)Cc2cccnc2)s1` [Example 5b, 5-(3-((3-(3-Chloro-phenyl)-propyl)-(Pyridin-3-yl-acetyl)-amino)-propyl)-thiophene-2-carboxylic acid] stands 640 nM. With `O=C(O)c1ccc(CCCN(CCCc2cccc(Cl)c2)S(=O)(=O)c2ccccc2Cl)s1` [Example 6, 5-(3-((2-Chloro-benzenesulfonyl)-(3-(3-chloro-phenyl)-propyl)-amino)-propyl)-thiophene-2-carboxylic acid], the IC50 was 315 nM.

Broadly, the IC50 is the midpoint of a concentration-inhibition curve. Low readings indicate inhibition by little substance, high ones a need for much substance.
